{"source": "patent US20150343016A1", "about": "“CHEMICAL ENTITIES AND THERAPEUTIC USES THEREOF” (The Regents of the University of Colorado, a body corporate, priority 2010, published 2015)", "key": {"[1]": {"tested_on": "Drosophila Chk1 or p53 mutant larvae", "experiment": "Drosophila screen for agents that increase the sensitivity of mutant larvae to radiation (NCI Diversity Set I and Natural Products Set)", "assay_type": "in vivo", "conditions": "irradiated Drosophila Chk1 or p53 mutant larvae", "description": "The Diversity Set I from the NCI-DTP, which is comprised of 1990 molecules chosen for chemical structural diversity and not for biological activity was screened using the Drosophila screen (U.S. Pat. No. 7,695,899).\nTable 1. […] A total of 2225 molecules in Diversity Set I (n=1990) and Natural Products Set (n=235) libraries from the NCI-DTP were screened for agents that increased the sensitivity of Drosophila Chk1 or p53 mutant larvae to radiation. […] MT=microtubule; DS=double strand; topo=topoisomerase; NT=nucleotide\nThe Natural Product Set, also from the NCI-DTP, which contains 235 small molecules derived from natural sources was selected next. These molecules were identified initially in extracts from plants, microbes and marine organisms, but are now synthesized to sufficient purity for distribution by the NCI as plated sets.\n(§1) The screen was performed using irradiated mutant larvae. Hits from the screen were defined as those that reduced the survival of IRRADIATED larvae compared to the population of drugs being tested (approximately 80 molecules at a time) or compared to DMSO controls in the re-test. A hit could therefore act by enhancing the effect of radiation, or by simply killing larvae as a single agent, or both. To distinguish among these possibilities, hits from the screen were re-tested against larvae with and without irradiation."}, "[2]": {"tested_on": "Det562 Head and Neck Squamous Cell Carcinoma cells", "experiment": "Streptovitacin A alone and in combination with taxol on human cancer cells", "assay_type": "cell-based", "conditions": "at a wide range of doses", "protocol": "FIG. 11 depicts that streptovitacin A synergizes with taxol on Det562 Head and Neck Cancer cells. Concentrations for streptovitacin/taxol are shown. CI=1 indicates additive effects; CI>1 indicates antagonistic effects; CI<1 indicates synergy. The y-axis is “Combination Index” (CI).\nThe effect of streptovitacin A on human cancer cells alone and in combination with taxol was tested.\nFIG. 11 depicts that at a wide range of doses the two drugs are synergistic (CI<1) in Det562 Head and Neck Squamous Cell Carcinoma cells."}, "[3]": {"tested_on": "p53 mutant Drosophila larvae", "experiment": "Drosophila larval survival to adulthood (eclosion), drug with and without IR, p53 mutants", "assay_type": "in vivo", "conditions": "drug alone (without radiation), wide range of doses", "protocol": "as §1, with “To validate the identification of Bouvardin from the primary screen, the effect of this molecule on Drosophila larvae alone or in combination with radiation were assessed (FIG. 12). The” for “The”\n(§2) In FIG. 12 survival after each treatment is expressed as the fraction of animals that emerged (“eclosed”) as viable adults. The averages have been normalized to the average fraction eclosed in no IR/drug control for the respective genotype. Error bars extend beyond fractional survival of 1.0 simply because of normalization. (A-C) Fraction eclosed for WT and grp and p53 mutants at 16 uM of Bouvardin, with and without IR. The data are averages of 3-8 biological replicates per sample. Dotted line on each graph denotes expected ‘fraction eclosed’ if drug and IR act additively. IR doses were 4000R for WT and grp and 3000R for p53 because of the higher radiation sensitivity of the latter. (D) Fraction eclosed for Minute mutants and yw controls after exposure to 0 (−IR) and 2000R (+IR) of X-rays. N ranged from 86-207 per genotype per treatment, in 3 biological replicates per sample. *=p<0.01; **=<0.001. 100R=1Gy. Error bar=1 standard deviation.\n(§3) The activity of Bouvardin in Drosophila alone or in combination with ionizing radiation (IR) was assessed. Drug concentrations of 10-20 μM were used to approximate the conditions of the original screen. Third instar larvae were irradiated and cultured on medium containing drug. The survival of larvae was quantified 10 days later by measuring the rate of eclosion into adulthood. […] For example, IR alone reduces the eclosion of p53 mutants to 0.63±0.05 and 10 μM of drug reduces it to 0.82±0.15. The combination of Bouvardin and IR reduces eclosion to 0.49, nearly the exact number expected (0.63±0.05×0.82±0.15=0.51±0.10) if the two treatments produced an additive effect. The expected eclosion for additive effect of drug and radiation are denoted with a white dotted line in each graph.\n(§4) Wild type flies were of the Sevelin stock. Mutants have been described before. p535A-1-4 results from targeted deletion of the gene, and is maintained and used as homogygotes. grpl (Chk1 mutants) results from a p-element insertion and is a genetic null. Homozygotes of the latter were identified by the lack of GFP marker on the balancer chromosome. Minute mutants were of the genotypes y[1]w[*]; P[w[+mC]=lacW]RpS131/CyO and P[lacW]RpL36G0471 w67c23/FM7a. Because Minute mutants were in yw or w background, y1w1 (Bloomington stock #1495) was used as ‘wild type’ control in these experiments.\n(§5) Feeding stage 3rd instar larvae were irradiated as previously described (2). Briefly, 120 hr old larvae were rinsed to remove food and passed through sizing sieves to obtain animals of uniform size. Larvae were placed in a Petri dish and irradiated using a TORREX X-ray generator, set at 115 kV and 5 mA (producing 2.4 Rads/sec or 1.44 Gy/min) Irradiated larvae were then cultured on cornmeal-agar media (2) containing drug or DMSO carrier. In all experiments using human cells, cells in 96-well plates were irradiated with a RS2000 Biological Irradiator (Rad Source Technologies, Inc.) delivering 1 Gy/min."}, "[4]": {"tested_on": "wild type Drosophila larvae", "experiment": "Drosophila larval survival to adulthood (eclosion), drug with and without IR, wild type", "assay_type": "in vivo", "conditions": "wild type Drosophila larvae", "protocol": "as §1, with “To validate the identification of Bouvardin from the primary screen, the effect of this molecule on Drosophila larvae alone or in combination with radiation were assessed (FIG. 12). The” for “The”\nas §2, §3, §4\nas §5, with “In all experiments using human cells, cells in 96-well plates were irradiated with a RS2000 Biological Irradiator (Rad Source Technologies, Inc.) delivering 1 Gy/min.” left out"}, "[5]": {"tested_on": "H157 lung cancer cells", "experiment": "CellTiter-Glo Luminescent Cell Viability Assay, Streptovitacin with ionizing radiation, H157", "assay_type": "cell-based, human", "conditions": "drug added 24 hr before irradiation", "protocol": "FIG. 15 depicts CI values for Streptovitacin A and radiation on H157 lung cancer cells.\nFor FIG. 15 CellTiter-Glo® Luminescent Cell Viability Assay (Promega G7570) were used to determine the effect of Streptovitacin (concentrations in uM) in combination with ionizing radiation (in Gy, X-axis). The drug was added 24 hr before irradiation. (A) Faction affected (Fa) determined by the following formula 1−(x/y) where x is the experimental sample and y is the no Bouvardin/no drug control) (B) Corresponding CI values. Cells were irradiated in a Faxitron X-ray cabinet x-ray system (Lincolnshire, Ill.) set at 115 kV and 5 mA (producing 5.33 Rads/sec or 3.2 Gy/min) Note that this X-ray machine, produces a higher dose rate (lower exposure time) than the X-ray machine used on H157 cells in FIG. 18. Even with the same settings, higher IR doses are needed to achieve the same Fa. More important, combinatorial effects with drugs are similar if not identical on the two machines."}, "[6]": {"tested_on": "Det562 cells", "experiment": "CellTiter-Glo Luminescent Cell Viability Assay, Bouvardin with Taxol, Det562", "assay_type": "cell-based, human", "conditions": "Det562 versus FaDu", "experimental": "“Combination Index” computation. Combination Indices were calculated using CalcuSyn software (Biosoft), which uses the method of Chou and Talalay. This method first computes drug-induced effect using the Hill Equation: where E is the measured effect; C is the drug concentration; Emax is the full range of drug effect, usually at or near 100%; IC50 is the drug concentration producing the median effect of 50%; and n is the curve shape parameter describing the steepness of the concentration-effect relationship. The Chou and Talalay method then linearizes the Hill Equation by logarithmic transformation as: where fu is the fraction of cells left unaffected after drug exposure, fa is the fraction of cells affected by the exposure, C is the drug concentration used, Cm is the concentration to achieve the median effect, and n is the curve shape parameter. Cm and n are equivalent to IC50 and n, respectively, in the Hill Equation. The values of n (obtained from the slope), nlog(Cm) (obtained from the absolute value of the intercept), and, therefore, Cm are obtained by plotting log(fu−1−1) versus log(C). […]\nThe growth inhibitory effects of Bouvardin with Taxol were evaluated using CellTiter-Glo® Luminescent Cell Viability Assay (Promega G7570). […] Luminescence of each well was measured using an automated plate reader."}, "[7]": {"tested_on": "xenografts of Rhabdomyosarcoma", "conditions": "cited from earlier work"}, "[8]": {"tested_on": "cells from human squamous cell carcinoma, melanoma, non-small cell lung carcinoma, malignant gliomas and small cell lung cancer", "conditions": "Topotecan and its analogs; preclinical models; cited from earlier work"}}, "data": [{"compound": "CC[C@@]1(O)C(=O)OCc2c1cc1n(c2=O)Cc2cc3ccccc3nc2-1", "note": "[20-S Camptothecin]", "values": [{"measurement": "Reproducible hit that increased the sensitivity of larvae to radiation; screen in which identified", "setting": "[1]", "value": "Camptothecin (1)"}]}, {"compound": "CC[C@H](C)[C@H]1NC(=O)[C@@H](NC(=O)[C@@H](CC(C)C)N(C)C(=O)[C@@H]2CCCN2C(=O)C(C)O)[C@@H](C)OC(=O)[C@H](Cc2ccc(OC)cc2)N(C)C(=O)[C@@H]2CCCN2C(=O)[C@H](CC(C)C)NC(=O)[C@@H](C)C(=O)[C@H](C(C)C)OC(=O)C[C@@H]1O", "note": "(stereo partly shown) [Didemnin B]", "values": [{"measurement": "Reproducible hit that increased the sensitivity of larvae to radiation; screen in which identified", "setting": "[1]", "value": "Didemnin B (2)"}]}, {"compound": "C[C@H]1CC[C@@H](C(C)(C)O)CC2=C1CC[C@@H]2C", "note": "[Guaiol]", "values": [{"measurement": "Reproducible hit that increased the sensitivity of larvae to radiation; screen in which identified", "setting": "[1]", "value": "Guaiol (2)"}]}, {"compound": "C[C@H]1C[C@@](C)(O)C[C@@H]([C@H](O)CC2CC(=O)NC(=O)C2)C1=O", "note": "[Streptovitacin A, streptovitacin A]", "values": [{"measurement": "Combination Index (CI), streptovitacin A with taxol", "setting": "[2]", "value": "< 1"}, {"measurement": "fraction of p53 mutant larvae that survive to adulthood versus wild type larvae", "setting": "[3]", "value": "lower than the fraction of wild type larvae that survive to adulthood"}, {"measurement": "fraction of p53 mutant larvae that survive to adulthood versus wild type larvae", "setting": "[3]; listed as streptovitacin A", "value": "kills p53 mutant larvae selectively over wild type larvae"}, {"measurement": "manner in which drug and ionizing radiation act together to kill larvae", "setting": "[4]", "value": "act synergistically"}, {"measurement": "observed average for the combination versus expected additive value", "setting": "[4]; 10 μM drug + IR", "value": "significantly lower than the expected additive value"}, {"measurement": "interaction of drug with radiation", "setting": "[5]", "value": "synergize at most combinations tested"}]}, {"compound": "CC(=O)O[C@H]1C(=O)[C@@]2(C)[C@H]([C@H](OC(=O)c3ccccc3)[C@]3(O)C[C@H](OC(=O)[C@H](O)[C@@H](NC(=O)c4ccccc4)c4ccccc4)C(C)=C1C3(C)C)[C@]1(OC(C)=O)CO[C@@H]1C[C@@H]2O", "note": "[Taxol, paclitaxel, reference compound]", "values": [{"measurement": "sensitivity of cells to Taxol alone", "setting": "[6]", "value": "more sensitive to Taxol alone than FaDu cells"}]}, {"compound": "CC[C@@]1(O)C(=O)OCc2c1cc1n(c2=O)Cc2cc3c(CN(C)C)c(O)ccc3nc2-1", "note": "[Topotecan]", "values": [{"measurement": "interaction with radiation", "setting": "[7]", "value": "Synergy between Topotecan and radiation has been confirmed"}, {"measurement": "interaction with radiation", "setting": "[8]", "value": "synergize with radiation"}]}, {"compound": "Bleomycin", "values": [{"measurement": "Reproducible hit that increased the sensitivity of larvae to radiation; screen in which identified", "setting": "[1]", "value": "Bleomycin (2)"}]}]}
